The record followed here is PubChem BioAssay AID179 (DTP/NCI, 2004).

For orientation: EC50 means the concentration at which the effect is half-maximal. A word on the IC50: it is the point on the concentration scale where inhibition reaches its midpoint.

For this experiment, the system named is CEM cells HIV-1 protection, formazan growth assay. The experiment in a line: NCI AIDS Antiviral Assay. To be noted: for IC50: measured here: growth of uninfected CEM cells. Summed up: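 Category rules: moderately active means at least 50% protection on retest, and confirmed active means 100% protection reproducibly. The underlying data came from a formazan growth assay in HIV-1-infected CEM cells.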

Molecules are shown by their SMILES. Active and inactive are the calls of the source.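 The calls were made as follows: active = compounds giving half or more protection of infected cells from virus-caused growth loss, again on retest; inactive = the rest.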 Where a SMILES comes first, the peptide text is derived from it. The star is where a group is joined. Boc = CC(C)(C)OC(=O)*

Consider `NC(=O)c1cn(Cc2ccccc2)c(=O)n1Cc1ccccc1`, for which the EC50 was over 117 µM and the IC50 is over 117 µM.
Take `O=C1Oc2ccccc2C(=O)/C1=C1\SSC(c2ccccc2)=C1c1ccccc1`: the EC50 was over 200 µM and the IC50 is over 200 µM.
Consider `COC(=O)C(=O)C(C#N)c1cccc(O)c1C(=O)OC` (stereo not given), for which the EC50 was over 36.3 µM and the half-maximal inhibitory concentration (IC50) was over 36.3 µM.
For `CN1CCN(CCCCN2c3ccccc3Sc3cc(N=[N+]=[N-])ccc32)CC1`, the EC50 was over 200 µM and the IC50 came out at 3.63 µM.
The corresponding values for `CCN(CC)CCn1ncc2c3c(=O)c4cccnc4n(CCN(CC)CC)c3ccc21` are over 200 µM and 3.47 µM.
With `CCC1=NC(N/N=C/c2ccco2)=N/C1=C\c1ccccc1O`, the EC50 is over 50.1 µM.
For the molecule `O=C1CC(c2ccsc2)n2cccc21` (stereo not given), the EC50 is 186 µM and the IC50 was over 200 µM.
For `N#CC1(C#N)NC(c2ccsc2)C(C#N)(C#N)NC1c1ccsc1` (stereo not given) the same measures were over 200 µM and 115 µM.
For `N#Cc1c(NC(=O)CN2CCOCC2)c(C(=O)Nc2ccc(Cl)cc2)n2c1CCC2` the same measures were over 50.1 µM and over 50.1 µM.
The corresponding values for `Fc1ccc2c3c([nH]c2c1)CCN(Cc1ccccc1)C3` are over 200 µM and 38 µM.
On to `O=C1NC(O)c2cccc(Cl)c2O1` (stereo not given), for which the outcome was inactive.
`CC(O)(c1ccccc1)c1ccc2ccccc2n1` (stereo not given): the EC50 is over 200 µM and the IC50 was 38 µM.
The corresponding values for `Oc1c(OCc2nnc(CCCCCCCCc3nnc(COc4ccc5ccccc5c4O)n3Nc3ccccc3)n2Nc2ccccc2)ccc2ccccc12` are over 2 µM and over 2 µM.
Consider `O=C1C(c2ccccc2)=[N+]([O-])c2cc([N+](=O)[O-])c(/C(Cl)=C/c3ccccc3)cc21`, for which the outcome was inactive.
For `CSc1nncc2[nH]c(C)nc12`, the EC50 is over 200 µM and the IC50 was over 200 µM.
Regarding `O=C1c2ccccc2C(=O)c2cc(N=Nc3c(O)ccc4ccccc34)ccc21`, the EC50 is over 100 µM and the IC50 was over 100 µM.
For the molecule `CC#N.CC#N.COC(=O)[C@@H]1CN(C(C)=O)C(=O)[N-]1.COC(=O)[C@@H]1CN(C(C)=O)C(=O)[N-]1.COC(=O)[C@@H]1CN(C(C)=O)C(=O)[N-]1.COC(=O)[C@@H]1CN(C(C)=O)C(=O)[N-]1.[Rh+2].[Rh+2]`, the EC50 was over 200 µM and the IC50 was over 200 µM.
Regarding `CC(C)(C)OC(=O)NCC(=O)NC1CC=CCC1NC(=O)CNC(=O)OC(C)(C)C` (stereo not given), the EC50 is over 200 µM and the IC50 was over 200 µM.
Regarding `CC(=O)c1nc2ccccc2n1CC(=O)c1ccc(Cl)cc1`, the EC50 is over 200 µM and the IC50 was 1.35 µM.
The corresponding values for `O=C(O)c1ccccc1S(=O)O` are over 200 µM and over 200 µM.
For `CC(=O)C1CC2(c3ccccc3)C(=O)c3ccccc3N2O1` (stereo not given) the same measures were over 447 µM and 195 µM.
For `COc1cccc(C2=NC(C(C)C)CO2)c1` (stereo not given) the same measures were over 229 µM and over 229 µM.
As for `C/C(=N\NC(=S)Nc1ccc(S(N)(=O)=O)cc1)c1ccccn1`, the EC50 is over 145 µM and the IC50 came out at 8.51 µM.
Turning to `COc1ccc(O[C@H](COCc2ccccc2)C[C@@H]2COC(C)(C)O2)cc1`, the outcome was inactive.
As to `[CH3][Sn]([CH3])([Cl])[CH2]C(P(=O)(c1ccccc1)c1ccccc1)P(=O)(c1ccccc1)c1ccccc1`, the EC50 is over 50.1 µM and the IC50 came to 2.29 µM.
For `Cc1ccc2nc(NC(=O)/C(Cc3nc4ccc(Cl)cc4[nH]c3=O)=N\NC(C)(C)C)sc2c1`, the EC50 is over 74.1 µM and the IC50 is over 74.1 µM.
As to `CC1(C)CC(=O)c2c(nc3c(ccc4ccccc43)c2-c2ccc(NC(=O)CCCC(=O)Nc3ccc(-c4c5c(nc6c4ccc4ccccc46)CC(C)(C)CC5=O)cc3)cc2)C1`, the EC50 is over 50.1 µM and the IC50 is over 50.1 µM.
For the molecule `O=C(Nc1ccc(Br)cc1)C(=O)C(C(=O)c1ccc(Cl)c(Cl)c1)C1OC(=O)c2ccccc21` (stereo not given), the EC50 is over 66.1 µM and the IC50 turned out to be 10 µM.
The corresponding values for `C[C@@H](c1ccccc1)N1CO[C@@]2(C#Cc3ccc4c(c3)OCO4)CCC[C@@H]12` are over 200 µM and 33.1 µM.
The corresponding values for `Cn1[nH]c(=O)ccc1=O` are over 2000 µM and 1780 µM.
As for `CCCCCCCCCCCCCCCCOC1N(C2CC(N=[N+]=[N-])C(CO)O2)C(=O)NC(=O)[C@]1(C)Cl` (stereo not given in full), the EC50 was over 200 µM and the IC50 amounted to 31.6 µM.
Take `Cc1ccc2oc(=O)cc(CC(=O)O)c2c1`: the EC50 was over 1150 µM and the IC50 was over 1150 µM.
`[O-][n+]1onc2c3nn(-c4ccccc4)nc3ccc21`: the EC50 is over 200 µM and the IC50 amounted to 12 µM.
With `O=C1Nc2ccc(Br)cc2/C1=c1/sc2nc3ccccc3n2c1=O`, the EC50 is over 50.1 µM and the IC50 was 42.7 µM.
For `COc1ccc(/C=C/C(=O)C(C)C)cc1` the same measures were over 200 µM and 33.9 µM.
For `CN(C)CCSc1nccc(-c2ccc(-c3ccnc(SCCN(C)C)n3)s2)n1` the same measures were over 102 µM and 0.182 µM.
With `CC(C)(C)NC(=O)C12C3C4C1C1C2C3C41I` (stereo not given), the EC50 was over 100 µM and the IC50 was over 100 µM.
As for `O=S(=O)(SCc1ccccc1)C(c1ccccc1)c1ccccc1`, the EC50 was over 105 µM and the IC50 is 6.31 µM.
For `O=CN1CCN(c2ccc3ccc(=O)[nH]c3n2)CC1` the same measures were over 200 µM and over 200 µM.
For `Nc1c(N2CCCCC2)c(=O)nc2[nH]/c(=C\c3ccco3)c(=O)n12` the same measures were over 200 µM and 158 µM.
For the molecule `O=Nc1c(S(=O)(=O)O)cc2cc(S(=O)(=O)O)ccc2c1O`, the EC50 was over 200 µM and the IC50 was over 200 µM.
Turning to `O=C(NC(=O)c1ccccc1)Nc1ccccc1`, the EC50 was over 14.1 µM and the IC50 is over 14.1 µM.
For the molecule `O=S(=O)(O)C(I)(I)S(=O)(=O)O`, the EC50 is over 200 µM and the IC50 was over 200 µM.
As for `CCCN(CCC)c1nc2ccc(NC(=O)OCC)cc2s1`, the EC50 is over 42.7 µM and the IC50 turned out to be 32.4 µM.
As to `COc1ccc(C2(OC)Oc3cc(OC)ccc3C(=O)C2(O)O)cc1` (stereo not given), the EC50 was over 200 µM and the IC50 is 10.7 µM.
The corresponding values for `N#CC(C(=N/NC(N)=S)/C(=N/NC(N)=S)C(C#N)c1ccc(Cl)cc1)c1ccc(Cl)cc1` (stereo not given) are over 257 µM and 186 µM.
For `CC(C)=CCN1Cc2cc(Cl)cc3[nH]c(=S)n(c23)CC1C` (stereo not given), the outcome was active and the IC50 worked out at 26.9 µM.
Regarding `C=CC(=O)N1C/C(=C\c2ccc(F)cc2)C(=O)/C(=C/c2ccc(F)cc2)C1`, the EC50 was over 0.2 µM and the IC50 amounted to 0.162 µM.
The corresponding values for `CCOC(=O)CN1C(=O)S/C(=C2\C(=O)N(C)c3ccccc32)C1=O` are over 200 µM and over 200 µM.
For `Cc1cc(N=C2C=C(Nc3cc(C)on3)C(=O)c3ccccc32)no1` the same measures were over 11.2 µM and over 11.2 µM.
`CN(CCO)CCN1c2ccccc2Sc2ccccc21`: the outcome was inactive.
On to `O=S(Cc1cc2c(cc1-c1ccccc1)OCO2)c1ccccc1` (stereo not given), for which the EC50 is over 269 µM and the IC50 was 9.55 µM.
For `CSc1ccc(N2C(=O)C3c4[nH]c5ccccc5c4C4CCC(C(C)(C)C)CC4C3C2=O)cc1` (stereo not given) the same measures were over 2.19 µM and over 2.19 µM.
For `Nc1ccn(CCO)c(=O)n1` the same measures were over 1620 µM and over 1620 µM.
The corresponding values for `CC(=O)OCC(=O)OC[C@H](OCc1ccccc1)[C@@H]1[C@H](OC(C)=O)C(=O)N1Cc1ccccc1` are over 200 µM and 145 µM.
Consider `COCC(C)(COP(=O)(N1CCOCC1)N1CCOCC1)CC(C)COP(=O)(N1CCOCC1)N1CCOCC1` (stereo not given), for which the outcome was inactive.
On to `Cc1ccccc1NS(=O)(=O)c1c(N)ncn1C`, for which the EC50 was over 832 µM and the IC50 was over 832 µM.
`CC(CCc1nc2ccccc2[nH]1)C1CCC2C3C(C[C@H](O)[C@]12C)[C@@]1(C)CC[C@@H](O)C[C@H]1C[C@H]3O` (stereo not given in full): the EC50 is over 50.1 µM and the IC50 came out at 10 µM.
Consider `O=C1/C(=N\O)C2CCC1C2` (stereo not given), for which the EC50 was over 363 µM and the IC50 is over 363 µM.
Turning to `NC(CSS(=O)(=O)O)=NCCc1ccc(O)cc1`, the EC50 is over 200 µM and the IC50 was over 200 µM.
As to `CCCCN(CCCC)CC(C(=O)Nc1ccccc1)/C(C)=N\NC(=O)c1ccncc1` (stereo not given), the EC50 was over 51.3 µM and the IC50 is 30.2 µM.
For `COc1ccc(-n2cccc2)cc1` the same measures were over 200 µM and over 200 µM.
Take `Cc1ccc2ccc3ccc(C)nc3c2n1.Cc1ccc2ccc3ccc(C)nc3c2n1.O=C1OC(C(O)C[O-])C(O)=C1O.[Cu+]`: the EC50 was over 12.6 µM and the IC50 amounted to 0.0871 µM.
The corresponding values for `COc1cc2cc[n+](C)c(Cc3ccccc3)c2cc1OC` are over 200 µM and 166 µM.
For `CC(=O)Nc1ccc(NC(=O)CC(=O)Nc2ccc(NC(C)=O)cc2)cc1` the same measures were over 200 µM and over 200 µM.
As to `CCOC(=O)C(CC(C)C)NC(=O)C(Cc1ccccc1)NC(=O)CNC(=O)OC(C)(C)C` (stereo not drawn) (Boc-Gly-Phe-Leu-OEt; configuration not given here), the EC50 was over 200 µM and the IC50 amounted to 8.51 µM.
The corresponding values for `CC(=O)N=S(NC(=O)c1ccc(C)cc1)C(Cl)(Cl)Cl` (stereo not given) are over 200 µM and 33.9 µM.
For `O=C1ONN(c2ccccc2)/C1=C/N=Nc1ncnc2nc[nH]c12` the same measures were 162 µM and over 200 µM.
Take `COC(=O)/C(C#N)=C\n1c(=S)[nH]c2ccccc21`: the EC50 is over 200 µM and the IC50 is over 200 µM.
Take `CC(c1ccccc1)/[N+]([O-])=C/c1ccccc1` (stereo not given): the EC50 was over 1120 µM and the IC50 was over 1120 µM.
For `CS1(=O)=NC(=NC#N)c2ccccc21` (stereo not given), the outcome was inactive.
